Data from patent publication US20040253277A1, “Anaesthetic formulations of propofol” (priority 2001, published 2004).
≈ marks a conversion by molar mass, not a printed value.

Key:
[1] = in vivo; cited from earlier work
[2] = physchem; conditions: water, thermodynamic from solid
Protocol: Analyses were performed using the Perkin Elmer Lambda 5 UV/V is Spectrophotometer.
Two sets of standards were prepared by serial dilution of:
1. 10% poloxamer P407/1% Propofol solution in water.
2. 1% Propofol solution in ethanol (EtOH).
Dilutions were performed with water and EtOH respectively. The standards were further diluted one hundred fold prior to measurement of their UV absorption spectra recorded.

In the case of `CC(C)c1cccc(C(C)C)c1O` [Propofol, 2,6-bis(1-methylethyl)phenol; 2,6-diisopropylphenol], the “dose required for long term infusion for anaesthesia” value [1] is listed as 4-12 mg/kg per hour, the “time of maximum effect after dosing” value [1] is listed as “within about one minute” and the solubility thermodynamic [2] is listed as about 1000 µM (≈ 178 µg/mL).
